Experimental findings from US20110288057A1, “SALICYLIC ACID DERIVATIVES BEING FARNESYL PYROPHOSPHATE SYNTHASE ACTIVITY INHIBITORS” (Novartis AG, priority 2008, published 2011) are described below.

For the experiment, the target named is T1, Recombinant human Farnesyl Pyrophosphate synthase (FPPS) (Homo sapiens, UniProt P14324).
T1 construct: made in house
T1 sequence (P14324 72-419 limits assumed): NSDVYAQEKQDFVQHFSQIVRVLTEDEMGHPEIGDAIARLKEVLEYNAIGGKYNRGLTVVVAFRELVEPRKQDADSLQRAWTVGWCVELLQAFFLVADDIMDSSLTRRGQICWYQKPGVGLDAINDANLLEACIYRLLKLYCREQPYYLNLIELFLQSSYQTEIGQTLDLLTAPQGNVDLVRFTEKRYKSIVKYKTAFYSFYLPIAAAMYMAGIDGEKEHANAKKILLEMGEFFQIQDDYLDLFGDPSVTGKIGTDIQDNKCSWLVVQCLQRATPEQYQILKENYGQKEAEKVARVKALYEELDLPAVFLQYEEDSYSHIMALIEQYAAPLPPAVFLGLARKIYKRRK
The experiment can be described thus: FPPS SPA (scintillation proximity FlashPlate assay of FPPS inhibition). In kind it is biochemical. (In general: Scintillation proximity formats need no separation of bound from free tracer.)

[1] abbreviates: Example 13 table, FPPS SPA, read-out: IC50.
The mark [2] stands for this setting: IC50, Example 13 table, FPPS SPA.
Setting [3] is: Example 15 table, FPPS SPA, read-out: IC50.
The mark [4] stands for this setting: Example 16 table, FPPS SPA, read-out: IC50.
[5] abbreviates: Inhibition according to the FPPS SPA (Example 21), read-out: IC50.

Where two headings read alike, the source gives them in different places.

As a reminder, the IC50 is the concentration that inhibits the measured activity by half. In the case of `COc1ccc(-c2ccc(C(=O)O)c(OCc3cccc4ccccc34)c2)cc1OC` [13 ab)], under setting [1], the IC50 came out at 260 nM.
Same read-out and setting: the figure for `O=C(O)c1ccc(-c2ccc(Cl)c(Cl)c2)cc1OCc1cccc2ccccc12` [13 ac)] is 1460 nM.
Still for that read-out and setting: the figure for `O=C(O)c1ccc(-c2cccc(CO)c2)cc1OCc1cccc2ccccc12` [13 ad)] is 500 nM; for `O=C(O)c1ccc(-c2cccc(OC(F)(F)F)c2)cc1OCc1cccc2ccccc12` [13 ae)] it is above 10000 nM.
Turning to `COc1cccc(-c2ccc(C(=O)O)c(OCc3cccc4ccccc34)c2)c1` [13 af)], under setting [1], the IC50 came to 1550 nM.
Still for that read-out and setting: the figure for `Cc1cccc(C)c1-c1ccc(C(=O)O)c(OCc2cccc3ccccc23)c1` [13 ag)] is 1100 nM.
Still for that read-out and setting: under `O=C(O)c1ccc(-c2cccc3[nH]ccc23)cc1OCc1cccc2ccccc12` [13 ah)] stands 260 nM.
Same read-out and setting: under `O=C(O)c1ccc(-c2ccc(F)c(F)c2)cc1OCc1cccc2ccccc12` [13 ai)] stands 320 nM.
For `O=C(O)c1ccc(-c2ccoc2)cc1OCc1cccc2ccccc12` [13 aj)], the IC50 under setting [1] was found to be 550 nM.
Still for that read-out and setting: under `O=C(O)c1ccc(-c2ccccc2F)cc1OCc1cccc2ccccc12` [13 ak)] stands 230 nM.
For `O=C(O)c1ccc(-c2cc3ccccc3o2)cc1OCc1cccc2ccccc12` [13 al)], the IC50 under setting [1] worked out at 1120 nM.
On to `O=C(O)c1ccc(-c2ccc3[nH]ccc3c2)cc1OCc1cccc2ccccc12` [13 am)], for which the IC50 under setting [1] turned out to be 340 nM.
On the same count and under the same terms, the figure for `O=C(O)c1ccc(-c2csc3ccccc23)cc1OCc1cccc2ccccc12` [13 an)] is 1350 nM.
Regarding `O=C(O)c1ccc(-c2ccc3c(c2)OCCO3)cc1OCc1cccc2ccccc12` [13 ao)], the IC50 under setting [1] worked out at 420 nM.
Still for that read-out and setting: the figure for `COc1ccccc1-c1ccc(C(=O)O)c(OCc2cccc3ccccc23)c1` [13 ap)] is 1930 nM; for `O=C(O)c1ccc(-c2cccc(F)c2)cc1OCc1cccc2ccccc12` [13 aq)] it is 1140 nM; for `Cc1ccccc1-c1ccc(C(=O)O)c(OCc2cccc3ccccc23)c1` [13 ar)] it is 530 nM.
On the same count and under the same terms, the figure for `O=C(O)c1ccc(-c2ccc(CO)cc2)cc1OCc1cccc2ccccc12` [13 as)] is 380 nM.
Consider `O=C(O)c1ccc(-c2ccc(F)cc2)cc1OCc1cccc2ccccc12` [13 at)], for which the IC50 under setting [2] is 300 nM.
As to `O=C(O)c1ccc(-c2cccc(O)c2)cc1OCc1cccc2ccccc12` [13 au)], under setting [1], the IC50 is 380 nM.
Regarding `O=C(O)c1ccc(-c2ccc(Cl)cc2)cc1OCc1cccc2ccccc12` [13 av)], the IC50 under setting [2] stood at 690 nM.
With `Cc1cc(Cl)ccc1-c1ccc(C(=O)O)c(OCc2cccc3ccccc23)c1` [13 aw)], under setting [1], the half-inhibitory concentration (IC50) is 440 nM.
As for `Cc1cccc(-c2ccc(C(=O)O)c(OCc3cccc4ccccc34)c2)c1` [13 ax)], the IC50 under setting [1] stood at 400 nM.
Turning to `COc1ccc2cc(-c3ccc(C(=O)O)c(OCc4cccc5ccccc45)c3)ccc2c1` [13 ay)], the IC50 under setting [1] came out at 380 nM.
Regarding `O=C(O)c1ccc(-c2ccc(O)cc2)cc1OCc1cccc2ccccc12` [13 az)], the IC50 under setting [2] came out at 380 nM.
Consider `O=C(O)c1ccc(-c2ccc3c(c2)OCO3)cc1OCc1cccc2ccccc12` [13 ba)], for which the half-maximal inhibitory concentration (IC50) under setting [1] was 240 nM.
Same read-out and setting: under `Cn1ccc2cc(-c3ccc(C(=O)O)c(OCc4cccc5ccccc45)c3)ccc21` [13 ca)] stands 270 nM; under `CC(=O)Nc1ccc(-c2ccc(C(=O)O)c(OCc3cccc4ccccc34)c2)cc1` [13 da)], 130 nM.
On to `O=C(O)c1ccc(NC2CCCC2)cc1OCc1cccc2ccccc12` [15 aa)], for which the IC50 under setting [3] is 630 nM.
As to `O=C(O)c1ccc(NCCCO)cc1OCc1cccc2ccccc12` [15 ab)], the IC50 under setting [3] worked out at 2310 nM.
Same read-out and setting: the figure for `O=C(O)c1ccc(N2CCCCCC2)cc1OCc1cccc2ccccc12` [15 ac)] is 530 nM.
Same read-out and setting: the figure for `CC(C)(C)CNc1ccc(C(=O)O)c(OCc2cccc3ccccc23)c1` [15 ad)] is 470 nM.
On to `COCCN(C)c1ccc(C(=O)O)c(OCc2cccc3ccccc23)c1` [15 ae)], for which the IC50 under setting [3] was 1390 nM.
With `CN(CCO)c1ccc(C(=O)O)c(OCc2cccc3ccccc23)c1` [15 af)], the IC50 under setting [3] amounted to 720 nM.
Same read-out and setting: the figure for `O=C(O)c1ccc(NCC2CCCCC2)cc1OCc1cccc2ccccc12` [15 ag)] is 2430 nM; for `CCCN(CC1CC1)c1ccc(C(=O)O)c(OCc2cccc3ccccc23)c1` [15 ah)] it is 1310 nM.
Regarding `C[C@H](Nc1ccc(C(=O)O)c(OCc2cccc3ccccc23)c1)C1CCCCC1` [15 ai)], under setting [3], the IC50 amounted to 3520 nM.
With `O=C(O)c1ccc(NC2CCCCCC2)cc1OCc1cccc2ccccc12` [15 aj)], the IC50 under setting [3] turned out to be 1790 nM.
On to `CC1CCC(Nc2ccc(C(=O)O)c(OCc3cccc4ccccc34)c2)CC1` (centres unmarked) [15 ak)], for which the IC50 under setting [3] was 1240 nM.
The same measure, in the same setting: under `CCCNc1ccc(C(=O)O)c(OCc2cccc3ccccc23)c1` [15 al)] stands 370 nM; under `O=C(O)c1ccc(N[C@H]2CC[C@H](O)CC2)cc1OCc1cccc2ccccc12` [15 am)], 190 nM.
`CN(C)c1ccc(C(=O)O)c(OCc2cccc3ccccc23)c1` [15 an)]: for the setting “IC50, Example 15 table, FPPS SPA”, the IC50 came to 190 nM.
On to `CCNc1ccc(C(=O)O)c(OCc2cccc3ccccc23)c1` [15 ao)], for which the IC50 under setting [3] came to 730 nM.
Still for that read-out and setting: the figure for `CN1CCCC1CCNc1ccc(C(=O)O)c(OCc2cccc3ccccc23)c1` (centres unmarked) [15 ap)] is 17500 nM.
Take `CC(Nc1ccc(C(=O)O)c(OCc2cccc3ccccc23)c1)C(C)(C)C` (centres unmarked) [15 aq)]: under setting [3], the IC50 amounted to 650 nM.
Still for that read-out and setting: the figure for `COCCNc1ccc(C(=O)O)c(OCc2cccc3ccccc23)c1` [15 ar)] is 8100 nM; for `CC(=O)N1CCN(c2ccc(C(=O)O)c(OCc3cccc4ccccc34)c2)CC1` [15 as)] it is 6500 nM; for `CN1CCCN(c2ccc(C(=O)O)c(OCc3cccc4ccccc34)c2)CC1` [15 at)] it is 6450 nM.
Consider `O=C(O)c1ccc(N2CCOCC2)cc1OCc1cccc2ccccc12` [15 au)], for which the IC50 under setting [3] was determined as 3180 nM.
Same read-out and setting: the figure for `CN1CCC(Nc2ccc(C(=O)O)c(OCc3cccc4ccccc34)c2)CC1` [15 aw)] is 4750 nM.
The same measure, in the same setting: under `CCN(CC)CCN(C)c1ccc(C(=O)O)c(OCc2cccc3ccccc23)c1` [15 az)] stands 26600 nM; under `CN1CCN(c2ccc(C(=O)O)c(OCc3cccc4ccccc34)c2)CC1` [15 ba)], 38600 nM.
Consider `O=C(O)c1ccc(NCc2ccccc2)cc1OCc1cccc2ccccc12` [16 b)], for which the IC50 under setting [4] is 210 nM.
Turning to `O=C(O)c1ccc(NCC2CC2)cc1OCc1cccc2ccccc12` [16 c)], the IC50 under setting [4] was 1200 nM.
As for `CCN(CC)c1ccc(C(=O)O)c(OCc2c(Cl)ccc3ccccc23)c1` [17 a)], under setting [5], the IC50 amounted to 770 nM.
On to `Cc1ccc2ccccc2c1COc1ccccc1C(=O)O` [17 b)], for which the half-maximal inhibitory concentration (IC50) under setting [5] was found to be 340 nM.
Consider `Cc1ccc2ccccc2c1COc1cc(-n2c(C)ccc2C)ccc1C(=O)O` [17 c)], for which the IC50 under setting [5] was found to be 480 nM.
As for `CCN(CC)c1ccc(C(=O)O)c(OCc2c(C)ccc3ccccc23)c1` [17 d)], the IC50 under setting [5] worked out at 660 nM.
Turning to `Cc1ccc(COc2ccccc2C(=O)O)c2ccccc12` [17 e)], under setting [5], the IC50 is 1830 nM.
Still for that read-out and setting: under `CCN(CC)c1ccc(C(=O)O)c(OCc2cccc3ccc(Cl)cc23)c1` [17 f)] stands 1820 nM; under `Cc1ccc(C)n1-c1ccc(C(=O)O)c(OCc2cccc3ccccc23)c1` [17 g)], 240 nM.
Regarding `O=C(O)c1cc2ccccc2cc1OCc1cccc2ccccc12` [17 h)], the 50% inhibitory concentration (IC50) under setting [5] stood at 840 nM.
Consider `CCN(CC)c1ccc(C(=O)O)c(OCc2cccc3ccccc23)c1` [17 i)], for which, under setting [5], the IC50 turned out to be 400 nM.
On to `O=C(O)c1cc(Cl)ccc1OCc1cccc2ccccc12` [17 j)], for which, under setting [5], the IC50 came out at 2960 nM.
As to `O=C(O)c1ccc(C(F)(F)F)cc1OCc1cccc2ccccc12` [17 k)], the IC50 under setting [5] amounted to 810 nM.
On the same count and under the same terms, the figure for `O=C(O)c1ccc(OC(F)(F)F)cc1OCc1cccc2ccccc12` [17 l)] is 2910 nM.
`CC(C)CCOc1ccc(C(=O)O)c(OCc2cccc3ccccc23)c1` [17 m)]: the IC50 under setting [5] was 1900 nM.
On the same count and under the same terms, under `O=C(O)c1ccc(OCc2ccccc2)cc1OCc1cccc2ccccc12` [17 n)] stands 730 nM.
Regarding `COc1ccc(OCc2cccc3ccccc23)c(C(=O)O)c1` [17 o)], the IC50 under setting [5] is 880 nM.
Same read-out and setting: under `Cc1cc(O)c(C(=O)O)c(OCc2cccc3ccccc23)c1` [17 p)] stands 2500 nM; under `O=C(O)c1ccc(Br)cc1OCc1cccc2ccccc12` [17 q)], 6750 nM.
Still for that read-out and setting: the figure for `O=C(O)c1ccccc1OCc1cccc2ccccc12` [17 r)] is 12800 nM; for `COc1ccc(C(=O)O)c(OCc2cccc3ccccc23)c1` [17 s)] it is 1340 nM.
For the molecule `O=C(O)c1ccccc1OCc1cccc2ccccc12` [Example 17 r)], under “IC50 on FPPS, test system termed "FPS SPA" (Example 18)”, the IC50 was 12500 nM.
